Here are results for 20 compounds from ChEMBL document CHEMBL2010722, “Structure-activity relationship study of beta-carboline derivatives as haspin kinase inhibitors” (Bioorg Med Chem Lett, 2012).

What is called IC50 is the midpoint of a concentration-inhibition curve. Higher therefore signals lower potency.

Assay [1] concerns the target Serine/threonine-protein kinase haspin (Homo sapiens) (UniProt Q8TF76). The experiment in a line: Inhibition of human recombinant N-terminal MBP-tagged haspin kinase expressed in Escherichia coli DE3 at 10 uM after 10 mins by TR-FRET assay. On the technique in general: Time-resolved FRET reads energy transfer from a long-lived donor to a nearby acceptor.
Assay [2] deals with T1, Serine/threonine-protein kinase haspin (Homo sapiens, UniProt Q8TF76).
T1 sequence (Q8TF76 whole entry): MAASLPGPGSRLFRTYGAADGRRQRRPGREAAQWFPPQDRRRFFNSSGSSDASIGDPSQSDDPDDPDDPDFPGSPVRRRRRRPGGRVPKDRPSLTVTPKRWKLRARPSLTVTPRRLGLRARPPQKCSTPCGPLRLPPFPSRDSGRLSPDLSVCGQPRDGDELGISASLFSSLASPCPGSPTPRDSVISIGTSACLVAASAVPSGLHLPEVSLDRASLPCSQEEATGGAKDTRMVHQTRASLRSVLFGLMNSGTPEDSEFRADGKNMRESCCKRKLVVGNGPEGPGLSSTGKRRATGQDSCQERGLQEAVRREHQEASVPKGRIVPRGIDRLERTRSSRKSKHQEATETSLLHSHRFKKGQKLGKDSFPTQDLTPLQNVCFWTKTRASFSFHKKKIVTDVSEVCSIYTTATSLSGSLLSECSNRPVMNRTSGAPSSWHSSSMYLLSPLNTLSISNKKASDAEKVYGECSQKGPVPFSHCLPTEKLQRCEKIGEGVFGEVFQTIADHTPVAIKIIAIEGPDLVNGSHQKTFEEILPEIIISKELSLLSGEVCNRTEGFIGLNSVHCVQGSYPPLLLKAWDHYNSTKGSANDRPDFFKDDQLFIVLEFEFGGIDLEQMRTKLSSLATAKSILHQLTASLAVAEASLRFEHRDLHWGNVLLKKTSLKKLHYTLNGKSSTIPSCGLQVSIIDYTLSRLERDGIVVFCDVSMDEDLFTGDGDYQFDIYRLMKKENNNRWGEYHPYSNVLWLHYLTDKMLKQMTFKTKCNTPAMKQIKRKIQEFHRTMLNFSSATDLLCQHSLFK

Assay [3] has as its target T2, Dual specificity tyrosine-phosphorylation-regulated kinase 2 (Homo sapiens, UniProt Q92630).
T2 sequence (Q92630 whole entry): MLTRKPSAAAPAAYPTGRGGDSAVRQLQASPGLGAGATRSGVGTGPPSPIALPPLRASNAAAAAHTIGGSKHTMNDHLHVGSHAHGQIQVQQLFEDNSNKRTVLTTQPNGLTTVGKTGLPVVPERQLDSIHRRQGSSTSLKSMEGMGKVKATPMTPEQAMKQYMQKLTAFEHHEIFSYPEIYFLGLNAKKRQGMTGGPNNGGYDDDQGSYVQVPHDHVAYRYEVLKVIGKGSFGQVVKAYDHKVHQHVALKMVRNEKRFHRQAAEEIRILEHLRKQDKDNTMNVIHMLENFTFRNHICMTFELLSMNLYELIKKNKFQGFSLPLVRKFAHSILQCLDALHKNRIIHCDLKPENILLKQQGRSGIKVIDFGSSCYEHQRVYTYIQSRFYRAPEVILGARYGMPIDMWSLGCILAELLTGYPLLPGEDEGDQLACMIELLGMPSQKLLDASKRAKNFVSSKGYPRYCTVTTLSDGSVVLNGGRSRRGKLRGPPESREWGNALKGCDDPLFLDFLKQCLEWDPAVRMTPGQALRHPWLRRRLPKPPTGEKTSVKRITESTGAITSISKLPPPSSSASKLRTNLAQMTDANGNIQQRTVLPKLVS

Assay [4] deals with T2, Dual specificity tyrosine-phosphorylation-regulated kinase 2. The experiment in a line: Inhibition of DYRK2.

Structures are written as SMILES. Active and inactive are the calls of the source. No cut-off for these calls is given here.

Consider `Cc1nccc2c1[nH]c1cc(OCCCCN)ccc12`, for which, in assay [1], the inhibition entry is “inactive”.

With `Cc1nccc2c3ccc(F)cc3n(CCCCN)c12`, the IC50 in assay [2] was 580 nM; in assay [3], > 10000 nM.

Regarding `Cc1[nH]ccc2c1[nH]c1cc(=O)ccc12` [HARMOL], the IC50 in assay [2] came out at 770 nM; in assay [4], 1500 nM.

For the compound `Cc1nccc2c3ccc(NS(C)(=O)=O)cc3n(CCCCN)c12`, the IC50 was 690 nM in assay [2] and > 10000 nM in assay [3].

As to `COc1cccc2c3ccnc(C)c3n(CCCCN)c12`, the IC50 in assay [2] is 220 nM; in assay [3] it was > 10000 nM.

In the case of `COc1cccc2c1c1ccnc(C)c1n2CCCCN`, the IC50 is 2700 nM in assay [2] and 7000 nM in assay [3].

Take `COc1ccc2c3ccncc3n(CCCCN)c2c1`: the IC50 in assay [2] was 300 nM; in assay [3] it was > 10000 nM.

On to `COc1ccc2c3ccnc(C)c3n(CCCCN)c2c1`, for which the IC50 in assay [2] was 170 nM; in assay [3], > 10000 nM.

As for `Cc1nccc2c3ccc(O)cc3n(CCCCN)c12`, the IC50 was 160 nM in assay [2] and > 10000 nM in assay [3].

For the compound `COc1ccc2c(c1)c1ccnc(C)c1n2CCCCN`, the results for the IC50 in assay [2] and in assay [3] were 2400 nM and 4900 nM, respectively.

Take `Cc1nccc2c1[nH]c1cc(OCCCN)ccc12`: the inhibition result in assay [1] is “inactive”.

Take `COc1ccc2c3ccnc(C)c3n(CCCCN(C)C)c2c1`: the IC50 in assay [2] was 470 nM; in assay [3], > 10000 nM.

For `COc1ccc2c(c1)[nH]c1c(C)nccc12` [HARMINE], in assay [4], half-maximal inhibition (IC50) required 690 nM.

On to `Cc1nccc2c3cc4c(cc3n(CCCCN)c12)OCO4`, for which the IC50 in assay [2] turned out to be 500 nM; in assay [3] it was 4800 nM.

Consider `NCCCCn1c2cc(O)ccc2c2ccnc(C(F)(F)F)c21`, for which the IC50 in assay [2] came to 220 nM; in assay [3] it was 8500 nM.

As to `CNCCCCn1c2cc(OC)ccc2c2ccnc(C)c21`, the IC50 is 340 nM in assay [2] and > 10000 nM in assay [3].

On to `COc1ccc2c3ccnc(C(C)C)c3n(CCCCN)c2c1`, for which the IC50 in assay [2] was 460 nM; in assay [3] it was > 10000 nM.

Consider `Cc1nccc2c3ccc(OC(C)(C)C)cc3n(CCCCN)c12`, for which the values for the IC50 in assay [2] and in assay [3] were 4600 nM and > 10000 nM, respectively.

Regarding `CCc1nccc2c3ccc(OC)cc3n(CCCCN)c12`, the IC50 in assay [2] was 190 nM; in assay [3] it was > 10000 nM.

Regarding `COc1ccc2c3ccnc(C)c3n(CCCCN)c2c1Cl`, the IC50 in assay [2] was 830 nM; in assay [3] it was 8000 nM.
